Reference: PubChem BioAssay (NCI)
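Exposure lasted 48 hours, with cells grown in 96-well plates and compounds tested at five concentrations. GI50 = concentration required for 50% inhibition of growth. The concentration for full growth arrest is given as TGI.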

Experiments:
Test in all cases: NCI anticancer screen, dose series, 48 h
[1] = system: IGROV1 ovarian
[2] = system: SNB-19 CNS
[3] = system: UACC-62 melanoma
[4] = system: MDA-MB-231 breast
[5] = system: UACC-257 melanoma
[6] = system: HOP-92 NSCLC
[7] = system: NCI-H460 lung
[8] = system: 786-0 renal
[9] = system: UO-31 renal
[10] = system: HOP-62 NSCLC
[11] = system: HS 578T breast
[12] = system: SR leukemia
[13] = system: OVCAR-5 ovarian
[14] = system: SNB-75 CNS
[15] = system: RPMI-8226 leukemia
[16] = system: TK-10 renal
[17] = system: CAKI-1 renal
[18] = system: OVCAR-8 ovarian
[19] = system: DU-145 prostate
[20] = system: SK-MEL-28 melanoma
[21] = system: HL-60(TB) leukemia
[22] = system: SW-620 colon
[23] = system: MDA-MB-435
[24] = system: LOX IMVI melanoma
[25] = system: K-562 leukemia
[26] = system: HCT-15 colon
[27] = system: U251 CNS
[28] = system: CCRF-CEM leukemia
[29] = system: KM12 colon
[30] = system: RXF 393 renal
[31] = system: NCI-H23 lung
[32] = system: T-47D breast
[33] = system: PC-3 prostate
[34] = system: SN12C renal
[35] = system: A549 NSCLC
[36] = system: OVCAR-4 ovarian
[37] = system: BT-549 breast
[38] = system: SK-MEL-2 melanoma
[39] = system: M14 melanoma
[40] = system: SF-539 CNS
[41] = system: OVCAR-3 ovarian
[42] = system: HT29 colon
[43] = system: MALME-3M melanoma
[44] = system: NCI-H522 lung
[45] = system: SK-OV-3 ovarian
[46] = system: EKVX NSCLC
[47] = system: MCF7 breast
[48] = system: SF-268 CNS
[49] = system: A498 renal
[50] = system: SK-MEL-5 melanoma
[51] = system: HCC-2998 colon
[52] = system: NCI-H226 lung
[53] = system: ACHN renal
[54] = system: NCI/ADR-RES ovarian
[55] = system: HCT-116 colon
[56] = system: SF-295 CNS
[57] = system: MOLT-4 leukemia
[58] = system: COLO 205 colon

COc1cc2c(c(OC)c1OC)-c1ccc(OC)c(=O)cc1[C@@H](NC(=O)CCl)CC2
GI50 [1]: < 10 nM
TGI [1]: 21900 nM
GI50 [2]: < 10 nM
TGI [2]: 28700 nM
GI50 [3]: < 10 nM
TGI [3]: 20100 nM
GI50 [4]: < 10 nM
TGI [4]: > 46000 nM
GI50 [5]: 1160 nM
TGI [5]: 31800 nM
TGI [6]: 7200 nM
GI50 [7]: < 10 nM
TGI [7]: 585 nM
GI50 [8]: < 10 nM
TGI [8]: 1700 nM
GI50 [9]: 67.3 nM
TGI [9]: 45300 nM
GI50 [10]: < 10 nM
TGI [10]: 10200 nM
GI50 [11]: < 10 nM
TGI [11]: > 100000 nM
GI50 [12]: < 10 nM
TGI [12]: > 95700 nM
TGI [13]: 30500 nM
GI50 [14]: < 10 nM
TGI [14]: 54700 nM
GI50 [15]: < 10 nM
TGI [15]: 15800 nM
GI50 [16]: 64.7 nM
TGI [16]: 14200 nM
GI50 [17]: 38.6 nM
TGI [17]: 21200 nM
GI50 [18]: < 10 nM
TGI [18]: > 33600 nM
GI50 [19]: < 10 nM
TGI [19]: < 10 nM
GI50 [20]: 304 nM
TGI [20]: 53800 nM
GI50 [21]: < 10 nM
TGI [21]: < 13.6 nM
GI50 [22]: < 10 nM
TGI [22]: 12000 nM
GI50 [23]: < 10 nM
TGI [23]: < 10 nM
GI50 [24]: < 10 nM
GI50 [25]: < 10 nM
TGI [25]: > 100000 nM
GI50 [26]: 30.8 nM
TGI [26]: > 100000 nM
GI50 [27]: < 10 nM
TGI [27]: 2020 nM
GI50 [28]: < 10 nM
TGI [28]: > 33300 nM
GI50 [29]: < 10 nM
TGI [29]: 52.1 nM
GI50 [30]: < 10 nM
TGI [30]: 19500 nM
GI50 [31]: < 10 nM
TGI [31]: > 33000 nM
GI50 [32]: 13200 nM
TGI [32]: > 59000 nM
GI50 [33]: < 10 nM
TGI [33]: 30900 nM
GI50 [34]: < 14.2 nM
TGI [34]: > 51500 nM
GI50 [35]: < 14.1 nM
TGI [35]: 25600 nM
GI50 [36]: < 10 nM
TGI [36]: > 100000 nM
GI50 [37]: < 10 nM
GI50 [38]: < 10 nM
TGI [38]: 10300 nM
GI50 [39]: < 10 nM
TGI [39]: < 10 nM
GI50 [40]: < 10 nM
TGI [40]: 23700 nM
GI50 [41]: < 10 nM
TGI [41]: < 10 nM
GI50 [42]: < 10 nM
TGI [42]: 10100 nM
GI50 [43]: 2510 nM
TGI [43]: 26500 nM
GI50 [44]: < 10 nM
TGI [44]: < 10 nM
GI50 [45]: < 10 nM
GI50 [46]: < 19.1 nM
TGI [46]: 23700 nM
GI50 [47]: < 10 nM
TGI [47]: 17400 nM
GI50 [48]: < 10 nM
TGI [48]: 3530 nM
GI50 [49]: < 10 nM
TGI [49]: 164 nM
GI50 [50]: < 10 nM
TGI [50]: < 12.4 nM
GI50 [51]: < 10 nM
TGI [51]: 22300 nM
GI50 [52]: 35.7 nM
TGI [52]: 10900 nM
GI50 [53]: 29.5 nM
TGI [53]: > 54100 nM
GI50 [54]: 142 nM
TGI [54]: > 23200 nM
GI50 [55]: < 10 nM
TGI [55]: 15.7 nM
GI50 [56]: < 10 nM
TGI [56]: 74.3 nM
GI50 [57]: < 10 nM
TGI [57]: > 100000 nM
GI50 [58]: < 10 nM
TGI [58]: < 10 nM
